Numbered stars: 1 amine (or outer) side, 2 acyl side, 3 side chain; on linkers, the order of the positions; unused ones are H or OH. Square brackets hold non-standard residues; d marks the D form. Peptide text beside a SMILES is read from it. * marks the point of attachment. X20 = O=C(CCCCCO[C@@H]1O[C@H](CO)[C@@H](O)[C@H](O)[C@H]1N[*:1])[*:2]; Phe(4-NO2) = N[C@@H](Cc1ccc([N+](=O)[O-])cc1)C(=O)O; hPhe = N[C@@H](CCc1ccccc1)C(=O)O; Cha = N[C@@H](CC1CCCCC1)C(=O)O; Phg = N[C@H](C(=O)O)c1ccccc1; Piperidide = C1CCN(*)CC1; PhAc = O=C(Cc1ccccc1)*; Bz = O=C(c1ccccc1)*
Biological target: VLA-4 (Homo sapiens, UniProt P05556+P13612)
Assay: cell-based
Type: cell-based
Parameters: host or cells: Jurkat (human T lymphoblastic line)
Conditions: not given
Method: Binding inhibition is measured here as a concentration of peptide that inhibits one-half the binding between a standard number of Jurkat cells and a standard amount of CS-1 peptide bound to the surface of a microtiter plate well. Those concentrations are conveniently expressed as IC50 values, smaller numbers indicating a lower concentration required to inhibit 50 percent binding and therefore greater potency. Further specifics of this assay are provided hereinafter.
Jurkat cells (ATCC TIB 152), a human T lymphoblastic line, labeled with ^51 chromium were used to assay in vitro binding inhibition provided by various peptides discussed herein.
The plates were prepared as follows: The 25-mer CS-1 peptide (SEQ ID NO:1) dissolved at 0.5-1 μg/ml in a buffer of 0.1M NaHCO3 at pH 9.5 that also contained 10 μg/ml of bovine serum albumin (BSA) or a conjugate of the CS-1 peptide linked to ovalbumin (CS-1-OVA) dissolved at 1-2.5 μg/ml in the same buffer was used as the substrate. Each well of the microtiter plates was coated with 50 μl of substrate or buffer alone for controls. The wells were permitted to dry out completely and were then rinsed twice with PBS at pH 7.4. Non-specific binding sites of each well were then blocked using 200 μl per well of RPMI/1 percent BSA for two hours at room temperature. Both solid phase-affixed substrates provided similar results.
Jurkat cells (3-5×10^6 cells) were placed into a 15 ml Falcon™ round-bottom tube with a cap. The tube was centrifuged, and the extra medium was then removed.
Two hundred microliters of a ^51 Cr labeling solution were added to the centrifuged cells and maintained in contact with the cells for 90-120 minutes in a warm room. This procedure typically provides about 50,000-100,000 cpm/well with about 80-100 percent cell viability. Longer contact times provide a greater amount of labeling but lower cell viability.
The labeled cells are washed with (i) complete medium, (ii) 1 mM EDTA/PBS and then (iii) RPM1/1 percent BSA free of serum components. The cells are centrifuged after each washing. The cells are finally resuspended in serum-free RPMI/1 percent BSA at a concentration of 1×10^6 viable cells/ml, which provides a concentration that is diluted by one-half in the assay.
Inhibitor peptides are prepared as stock solutions at 20 mg/ml in DMSO in 1.5 ml cryogenic screwcap vials, and were stored at -70° C. Using Flow™ round-bottom or V-bottom microtiter plates, the inhibitor peptides were prepared at twice the assay concentration in RPMI/1 percent BSA at 60 μl well.
Four initial dilutions were typically used.
The ^51 Cr-labeled cells (1×10^6 cells at 60 μl/well) were then admixed with the diluted peptide solutions. The admixtures were maintained at room temperature (about 22° C.) for 30 minutes.
One hundred microliters of each inhibitor peptide/cell admixture were transferred to the substrate-coated wells. This was done in triplicate for each dilution. The resulting plates were incubated for 30 minutes at 37° C. and then washed gently three times with RPMI/1 percent BSA at 200 μl/well. Binding was observed microscopically, particularly after the second wash.
The bound cells were then lysed by the addition of a 0.5 percent solution of sodium dodecylsulfate in water at 100 μ/l well. The resulting solutions were then processed for counting and calculation of IC50 values following usual procedures. Appropriate positive and negative controls were used with each plate so that the results of separate assays could be normalized and compared.
The data of Table 1 are so normalized.

Sequence of VLA-4 (P13612 34-1032): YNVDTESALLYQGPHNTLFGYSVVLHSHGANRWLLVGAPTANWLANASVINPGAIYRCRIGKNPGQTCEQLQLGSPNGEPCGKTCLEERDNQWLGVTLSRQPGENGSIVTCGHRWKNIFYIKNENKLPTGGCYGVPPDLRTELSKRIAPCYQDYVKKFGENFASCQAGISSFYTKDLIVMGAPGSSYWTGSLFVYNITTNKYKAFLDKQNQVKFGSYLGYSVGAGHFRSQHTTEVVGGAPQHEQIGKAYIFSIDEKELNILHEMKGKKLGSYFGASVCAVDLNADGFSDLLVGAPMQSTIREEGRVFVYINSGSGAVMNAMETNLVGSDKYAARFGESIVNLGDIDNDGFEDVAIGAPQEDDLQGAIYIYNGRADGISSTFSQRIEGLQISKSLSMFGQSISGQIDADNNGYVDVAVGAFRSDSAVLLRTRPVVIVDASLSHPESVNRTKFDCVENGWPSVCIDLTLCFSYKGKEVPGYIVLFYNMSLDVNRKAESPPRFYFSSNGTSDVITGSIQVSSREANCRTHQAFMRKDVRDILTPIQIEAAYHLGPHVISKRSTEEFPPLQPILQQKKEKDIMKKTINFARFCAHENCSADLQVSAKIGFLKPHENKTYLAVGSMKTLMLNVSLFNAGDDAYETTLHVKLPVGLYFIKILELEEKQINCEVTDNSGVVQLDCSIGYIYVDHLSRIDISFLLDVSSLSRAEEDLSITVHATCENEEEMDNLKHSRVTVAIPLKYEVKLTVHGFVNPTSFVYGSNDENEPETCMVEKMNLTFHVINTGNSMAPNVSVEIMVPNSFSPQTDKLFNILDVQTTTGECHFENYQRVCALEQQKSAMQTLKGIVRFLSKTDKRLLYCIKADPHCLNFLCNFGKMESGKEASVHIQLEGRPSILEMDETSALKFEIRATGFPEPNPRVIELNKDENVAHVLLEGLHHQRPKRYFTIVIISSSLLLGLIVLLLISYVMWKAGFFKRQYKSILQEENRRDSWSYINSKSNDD
Sequence of VLA-4 (P05556 21-798): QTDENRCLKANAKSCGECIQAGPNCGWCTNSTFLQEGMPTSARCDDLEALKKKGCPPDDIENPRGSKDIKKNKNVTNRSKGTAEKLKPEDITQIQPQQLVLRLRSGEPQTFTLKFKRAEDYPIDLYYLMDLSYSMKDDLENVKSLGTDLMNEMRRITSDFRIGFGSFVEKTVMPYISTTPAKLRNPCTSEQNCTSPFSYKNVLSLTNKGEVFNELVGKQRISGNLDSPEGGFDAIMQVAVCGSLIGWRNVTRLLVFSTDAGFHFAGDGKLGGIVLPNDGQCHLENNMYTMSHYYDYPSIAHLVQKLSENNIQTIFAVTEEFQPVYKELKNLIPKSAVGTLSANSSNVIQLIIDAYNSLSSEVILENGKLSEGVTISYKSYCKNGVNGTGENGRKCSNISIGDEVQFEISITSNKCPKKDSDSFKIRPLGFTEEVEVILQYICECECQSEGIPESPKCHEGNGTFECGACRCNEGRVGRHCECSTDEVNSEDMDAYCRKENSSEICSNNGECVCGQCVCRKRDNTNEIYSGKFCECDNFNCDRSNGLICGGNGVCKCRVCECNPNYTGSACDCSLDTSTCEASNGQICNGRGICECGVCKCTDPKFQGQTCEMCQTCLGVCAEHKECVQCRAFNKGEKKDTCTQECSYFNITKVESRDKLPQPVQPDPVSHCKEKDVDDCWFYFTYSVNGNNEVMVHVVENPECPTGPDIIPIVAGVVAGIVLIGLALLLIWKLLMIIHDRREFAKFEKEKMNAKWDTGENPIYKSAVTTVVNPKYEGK

| Compound | RELATIVE POTENCY (relative peptide inhibition of VLA-4 binding CS-1) |
| --- | --- |
| CC(=O)N[C@H]1[C@H](OCCCCCC(=O)N[C@@H](Cc2ccccc2)C(=O)N[C@@H](CC(C)C)C(=O)N[C@@H](CC(=O)O)C(=O)N[C@@H](CC(C)C)C(=O)N2CCCCC2)O[C@H](CO)[C@@H](O)[C@@H]1O (Ac-[X20]FLDL-Piperidide) | 41 |
| NC(=O)[C@H]1CCCN1C(=O)[C@H](Cc1ccccc1)NC(=O)[C@H](CC(=O)O)NC(=O)[C@H](CC1CCCCC1)NC(=O)[C@@H](N)Cc1ccccc1 (H-F[Cha]DF[dP]-NH2) | 1 |
| CC[C@H](C)[C@H](N)C(=O)N[C@@H](CC1CCCCC1)C(=O)N[C@@H](CC(=O)O)C(=O)N[C@@H](Cc1ccccc1)C(=O)N1CCC[C@@H]1C(N)=O (H-I[Cha]DF[dP]-NH2) | 1 |
| CC[C@H](C)[C@H](N)C(=O)N[C@@H](CC1CCCCC1)C(=O)N[C@@H](CC(=O)O)C(=O)N[C@H](C(=O)N1CCC[C@@H]1C(N)=O)C(C)C (H-I[Cha]DV[dP]-NH2) | < 1 |
| CCC(C)C(N)C(=O)N[C@@H](CC(C)C)C(=O)N[C@@H](CC(=O)O)C(=O)N[C@H](C(=O)N1CCC[C@@H]1C(N)=O)C(C)C (single isomer, unassigned) [I L D V p free amine amide] | 1 |
| CC(C)C[C@H](NC(=O)C(C)(C)C)C(=O)N[C@@H](CC(=O)O)C(=O)N[C@H](C(=O)N1CCCC1C(N)=O)C(C)C (single isomer, unassigned) [X L D V P pivaloyl amide] | 20 |

Same assay, conditions: normalized IC50 relative to standard peptide of SEQ ID NO:3 (=1); about one-tenth or less of the standard is assigned zero

| Compound | RELATIVE POTENCY (relative peptide inhibition of VLA-4 binding CS-1) |
| --- | --- |
| CCCCCCCCCC(=O)OC1CCN(C(=O)[C@H](Cc2ccccc2)NC(=O)[C@H](CC(=O)O)NC(=O)[C@H](CC(C)C)NC(=O)Cc2ccccc2)CC1 | 1 |
| CCCCCCCCCCCCCCCCCC(=O)OC1CCN(C(=O)[C@H](Cc2ccccc2)NC(=O)[C@H](CC(=O)O)NC(=O)[C@H](CC(C)C)NC(=O)Cc2ccccc2)CC1 | 1 |
| CC(C)C[C@H](NC(=O)Cc1ccccc1)C(=O)N[C@@H](CC(=O)O)C(=O)NC(Cc1ccccc1)Cc1ccccc1 | 0 |
| CC(C)C[C@H](NC(=O)Cc1ccccc1)C(=O)N[C@@H](CC(=O)O)C(=O)NN(Cc1ccccc1)Cc1ccccc1 | 0 |
| NC(=O)[C@H]1CCCN1C(=O)[C@H](Cc1ccccc1)NC(=O)[C@H](CC(=O)O)NC(=O)[C@H](CC1CCCCC1)NC(=O)c1ccccc1 (Bz-[Cha]DF[dP]-NH2) | 17 |
| CC(C)[C@H](NC(=O)[C@H](CC(=O)O)NC(=O)[C@H](CC1CCCCC1)NC(=O)c1ccccc1)C(=O)N1CCC[C@@H]1C(N)=O (Bz-[Cha]DV[dP]-NH2) | 11 |
| CC(C)C[C@H](NC(=O)Cc1ccccc1)C(=O)N[C@@H](CC(=O)O)C(=O)N[C@@H](Cc1ccc([N+](=O)[O-])cc1)C(=O)N1CCC[C@@H]1C(N)=O (PhAc-LD[Phe(4-NO2)][dP]-NH2) | 40 |
| CC(C)C[C@H](NC(=O)Cc1ccccc1)C(=O)N[C@@H](CC(=O)O)C(=O)N[C@H](C(=O)N1CCC[C@@H]1C(N)=O)c1ccccc1 (PhAc-LD[Phg][dP]-NH2) | 61 |
| CC(C)C[C@H](NC(=O)Cc1ccccc1)C(=O)N[C@@H](CC(=O)O)C(=O)N[C@@H](CCc1ccccc1)C(=O)N1CCC[C@@H]1C(N)=O (PhAc-LD[hPhe][dP]-NH2) | 94 |
